System: uric acid levels
Assay: Multiple ascending dose study every twelve hours for seven days, uric acid in healthy elderly subjects
Type: in vivo, human
Conditions: for uric acid, Mean: N=6
Description: A single-center, randomized, placebo-controlled, multiple ascending dose study evaluating a scyllo-inositol formulation was conducted in healthy elderly subjects. Approximately 32 healthy subjects (men and women) participated in […] consisting of 8 subjects each (i.e., 6 on active drug and 2 on placebo). Subjects received drug twice daily (BID) (every 12 hours) for 7 days. The dosage levels of the scyllo-inositol were 200 mg BID (400 mg/d total), 700 mg BID (1400 mg/d total), 1500 mg BID (3000 mg/d total) and 3000 mg BID (6000 mg/d total) given every 12 hours. Blood samples were collected from each subject on days 0, 4, 7, and 12.
Scyllo-inositol 200 and 500 mg capsules were bovine spongiform encephalopathy (BSE)/transmissible spongiform encephalopathy (TSE)-free soft gelatin, white, opaque capsules and no excipient was used in the finished product. Capsules were supplied in 60-mL, oblong, white pharmaceutical high density polyethylene (HDPE) bottles with white caps. Each 60-mL bottle contained 30 capsules of 200 or 500 mg scyllo-inositol.
The mean change from baseline to day 7 versus placebo was used to determine statistical significance. […] The ANCOVA looked at the change of uric acid levels in controls from starting levels of uric acid; the software used was SAS 9.1.3. […] The point estimate of 0.85 is a population parameter in dosed subjects.

[1] = 200 mg BID oral 7 days group, Baseline (Day 0)
[2] = 700 mg BID oral 7 days group, Baseline (Day 0)
[3] = 1500 mg BID oral 7 days group, Baseline (Day 0)
[4] = 1500 mg BID oral 7 days, Day 12
[5] = 3000 mg BID oral 7 days group, Baseline (Day 0)
[6] = 3000 mg BID oral 7 days, Day 12

O[C@H]1[C@H](O)[C@@H](O)[C@H](O)[C@@H](O)[C@@H]1O [scyllo-inositol, 1,2,3,4,5,6-cyclohexanehexyl, (1alpha,2beta,3alpha,4beta,5alpha,6beta)]
uric acid, Max [1]: 458 micromole per liter
uric acid, Median [1]: 318.2 micromole per liter
uric acid, Min [1]: 149 micromole per liter
uric acid, Mean [1]: 316.2 micromole per liter
uric acid, Max (200 mg BID oral 7 days, Day 4): 410 micromole per liter
uric acid, Max Change from Baseline (200 mg BID oral 7 days, Day 4): 54 micromole per liter
uric acid, Mean Change from Baseline (200 mg BID oral 7 days, Day 4): −7.9 micromole per liter
uric acid, Median (200 mg BID oral 7 days, Day 4): 330.1 micromole per liter
uric acid, Median Change from Baseline (200 mg BID oral 7 days, Day 4): −11.9 micromole per liter
uric acid, Min (200 mg BID oral 7 days, Day 4): 143 micromole per liter
uric acid, Min Change from Baseline (200 mg BID oral 7 days, Day 4): −48 micromole per liter
uric acid, Mean (200 mg BID oral 7 days, Day 4): 308.3 micromole per liter
uric acid, Max (200 mg BID oral 7 days, Day 7): 387 micromole per liter
uric acid, Max Change from Baseline (200 mg BID oral 7 days, Day 7): 18 micromole per liter
uric acid, Mean Change from Baseline (200 mg BID oral 7 days, Day 7): −25.8 micromole per liter
uric acid, Median (200 mg BID oral 7 days, Day 7): 333.1 micromole per liter
uric acid, Median Change from Baseline (200 mg BID oral 7 days, Day 7): −17.8 micromole per liter
uric acid, Min (200 mg BID oral 7 days, Day 7): 143 micromole per liter
uric acid, Min Change from Baseline (200 mg BID oral 7 days, Day 7): −77 micromole per liter
uric acid, Mean (200 mg BID oral 7 days, Day 7): 290.5 micromole per liter
uric acid, Max (200 mg BID oral 7 days, Day 12): 476 micromole per liter
uric acid, Max Change from Baseline (200 mg BID oral 7 days, Day 12): 59 micromole per liter
uric acid, Median (200 mg BID oral 7 days, Day 12): 368.8 micromole per liter
uric acid, Median Change from Baseline (200 mg BID oral 7 days, Day 12): 26.8 micromole per liter
uric acid, Min (200 mg BID oral 7 days, Day 12): 184 micromole per liter
uric acid, Min Change from Baseline (200 mg BID oral 7 days, Day 12): −12 micromole per liter
uric acid, Mean (200 mg BID oral 7 days, Day 12): 342.0 micromole per liter
uric acid, Max [2]: 410 micromole per liter
uric acid, Median [2]: 258.7 micromole per liter
uric acid, Min [2]: 161 micromole per liter
uric acid, Mean [2]: 269.6 micromole per liter
uric acid, Max (700 mg BID oral 7 days, Day 4): 351 micromole per liter
uric acid, Max Change from Baseline (700 mg BID oral 7 days, Day 4): 0 micromole per liter
uric acid, Mean Change from Baseline (700 mg BID oral 7 days, Day 4): −51.5 micromole per liter
uric acid, Median (700 mg BID oral 7 days, Day 4): 175.5 micromole per liter
uric acid, Median Change from Baseline (700 mg BID oral 7 days, Day 4): −62.5 micromole per liter
uric acid, Min (700 mg BID oral 7 days, Day 4): 143 micromole per liter
uric acid, Min Change from Baseline (700 mg BID oral 7 days, Day 4): −101 micromole per liter
uric acid, Mean (700 mg BID oral 7 days, Day 4): 218.1 micromole per liter
uric acid, Max (700 mg BID oral 7 days, Day 7): 309 micromole per liter
uric acid, Max Change from Baseline (700 mg BID oral 7 days, Day 7): −12 micromole per liter
uric acid, Mean Change from Baseline (700 mg BID oral 7 days, Day 7): −70.4 micromole per liter
uric acid, Median (700 mg BID oral 7 days, Day 7): 169.5 micromole per liter
uric acid, Median Change from Baseline (700 mg BID oral 7 days, Day 7): −83.3 micromole per liter
uric acid, Min (700 mg BID oral 7 days, Day 7): 125 micromole per liter
uric acid, Min Change from Baseline (700 mg BID oral 7 days, Day 7): −107 micromole per liter
uric acid, Mean (700 mg BID oral 7 days, Day 7): 199.3 micromole per liter
uric acid, Max (700 mg BID oral 7 days, Day 12): 410 micromole per liter
uric acid, Max Change from Baseline (700 mg BID oral 7 days, Day 12): 30 micromole per liter
uric acid, Mean Change from Baseline (700 mg BID oral 7 days, Day 12): −1.0 micromole per liter
uric acid, Median (700 mg BID oral 7 days, Day 12): 237.9 micromole per liter
uric acid, Median Change from Baseline (700 mg BID oral 7 days, Day 12): 3.0 micromole per liter
uric acid, Min (700 mg BID oral 7 days, Day 12): 167 micromole per liter
uric acid, Min Change from Baseline (700 mg BID oral 7 days, Day 12): −54 micromole per liter
uric acid, Mean (700 mg BID oral 7 days, Day 12): 268.7 micromole per liter
uric acid, Max [3]: 434 micromole per liter
uric acid, Median [3]: 279.6 micromole per liter
uric acid, Min [3]: 220 micromole per liter
uric acid, Mean [3]: 303.3 micromole per liter
uric acid, Max (1500 mg BID oral 7 days, Day 4): 291 micromole per liter
uric acid, Max Change from Baseline (1500 mg BID oral 7 days, Day 4): 12 micromole per liter
uric acid, Mean Change from Baseline (1500 mg BID oral 7 days, Day 4): −70.4 micromole per liter
uric acid, Median (1500 mg BID oral 7 days, Day 4): 237.9 micromole per liter
uric acid, Median Change from Baseline (1500 mg BID oral 7 days, Day 4): −71.4 micromole per liter
uric acid, Min (1500 mg BID oral 7 days, Day 4): 155 micromole per liter
uric acid, Min Change from Baseline (1500 mg BID oral 7 days, Day 4): −143 micromole per liter
uric acid, Mean (1500 mg BID oral 7 days, Day 4): 233.0 micromole per liter
uric acid, Max (1500 mg BID oral 7 days, Day 7): 256 micromole per liter
uric acid, Max Change from Baseline (1500 mg BID oral 7 days, Day 7): −24 micromole per liter
uric acid, Mean Change from Baseline (1500 mg BID oral 7 days, Day 7): −88.2 micromole per liter
uric acid, Median (1500 mg BID oral 7 days, Day 7): 229.0 micromole per liter
uric acid, Median Change from Baseline (1500 mg BID oral 7 days, Day 7): −77.3 micromole per liter
uric acid, Min (1500 mg BID oral 7 days, Day 7): 155 micromole per liter
uric acid, Min Change from Baseline (1500 mg BID oral 7 days, Day 7): −196 micromole per liter
uric acid, Mean (1500 mg BID oral 7 days, Day 7): 215.1 micromole per liter
uric acid, Max [4]: 399 micromole per liter
uric acid, Max Change from Baseline [4]: 18 micromole per liter
uric acid, Mean Change from Baseline [4]: −27.8 micromole per liter
uric acid, Median [4]: 279.6 micromole per liter
uric acid, Median Change from Baseline [4]: −29.7 micromole per liter
uric acid, Min [4]: 196 micromole per liter
uric acid, Min Change from Baseline [4]: −65 micromole per liter
uric acid, Mean [4]: 275.6 micromole per liter
uric acid, Max [5]: 363 micromole per liter
uric acid, Median [5]: 300.4 micromole per liter
uric acid, Min [5]: 226 micromole per liter
uric acid, Mean [5]: 299.4 micromole per liter
uric acid, Max (3000 mg BID oral 7 days, Day 4): 262 micromole per liter
uric acid, Max Change from Baseline (3000 mg BID oral 7 days, Day 4): −59 micromole per liter
uric acid, Mean Change from Baseline (3000 mg BID oral 7 days, Day 4): −83.3 micromole per liter
uric acid, Median (3000 mg BID oral 7 days, Day 4): 226.0 micromole per liter
uric acid, Median Change from Baseline (3000 mg BID oral 7 days, Day 4): −83.3 micromole per liter
uric acid, Min (3000 mg BID oral 7 days, Day 4): 161 micromole per liter
uric acid, Min Change from Baseline (3000 mg BID oral 7 days, Day 4): −107 micromole per liter
uric acid, Mean (3000 mg BID oral 7 days, Day 4): 216.1 micromole per liter
uric acid, Max (3000 mg BID oral 7 days, Day 7): 268 micromole per liter
uric acid, Max Change from Baseline (3000 mg BID oral 7 days, Day 7): −71 micromole per liter
uric acid, Mean Change from Baseline (3000 mg BID oral 7 days, Day 7): −85.3 micromole per liter
uric acid, Median (3000 mg BID oral 7 days, Day 7): 214.1 micromole per liter
uric acid, Median Change from Baseline (3000 mg BID oral 7 days, Day 7): −74.4 micromole per liter
uric acid, Min (3000 mg BID oral 7 days, Day 7): 149 micromole per liter
uric acid, Min Change from Baseline (3000 mg BID oral 7 days, Day 7): −131 micromole per liter
uric acid, Mean (3000 mg BID oral 7 days, Day 7): 214.1 micromole per liter
uric acid, Max [6]: 345 micromole per liter
uric acid, Max Change from Baseline [6]: 18 micromole per liter
uric acid, Mean Change from Baseline [6]: −29.7 micromole per liter
uric acid, Median [6]: 270.6 micromole per liter
uric acid, Median Change from Baseline [6]: −23.8 micromole per liter
uric acid, Min [6]: 208 micromole per liter
uric acid, Min Change from Baseline [6]: −83 micromole per liter
uric acid, Mean [6]: 269.6 micromole per liter
decreases from baseline in uric acid, dose-response (200-3000 mg BID oral 7 days, Day 7): a dose-response effect was not as apparent
mean uric acid levels, relation to dose (200-3000 mg BID oral 7 days, Days 4 and 7, Day 12): dose-related decrease in mean uric acid levels was observed at Days 4 and 7, which partially resolved by Day 12
mean difference (PLC-TRT) in change from baseline to day 7, point estimate (scyllo-inositol treated versus placebo, Day 7, ANCOVA): 0.85
